Patent publication US20150105252A1, “SUBSTITUTED PYRAZOLES AS HERBICIDES” (E I DU PONT DE NEMOURS AND COMPANY, priority 2013, published 2015)

What was measured:
velvetleaf [1] = test: Test A preemergence; type: in vivo, Abutilon theophrasti
Summary of the method: (§1)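 Visual injury rating, 0–100 (0 no effect, 100 complete control), vs untreated controls ~10 days after treatment in greenhouse. Pre: directed soil spray on seeded loam/sand. Post: 2–10 cm plants, 1–2 leaf stage. Formulation: non-phytotoxic solvent mix + surfactant.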

barnyardgrass [2] = test: Test A postemergence; type: in vivo, Echinochloa crus-galli
Summary of the method: as §1

wheat [3] = test: Test A preemergence; type: in vivo, Triticum aestivum; conditions: preemergence
Summary of the method: as §1

ducksalad [4] = test: Test C flooded paddy test; type: in vivo, Heteranthera limosa; conditions: Flood
Excerpt: (§2) At time of treatment, test pots were flooded to 3 cm above the soil surface, treated by application of test compounds directly to the paddy water, and then maintained at that water depth for the duration of the test. Treated plants and controls were maintained in a greenhouse for 13 to 15 days, after which time all species were compared to controls and visually evaluated. […] A dash (-) response means no test result.

rice [5] = test: Test C flooded paddy test; type: in vivo, Oryza sativa; conditions: Flood
Excerpt: as §2

corn [6] = test: Test A preemergence; type: in vivo, Zea mays
Summary of the method: as §1

pigweed [7] = test: Test A postemergence; type: in vivo, Amaranthus retroflexus
Summary of the method: as §1

morningglory [8] = test: Test A postemergence; type: in vivo, Ipomoea spp.
Summary of the method: as §1

foxtail, giant [9] = test: Test A postemergence; type: in vivo, Setaria faberii
Summary of the method: as §1

barnyardgrass [10] = test: Test C flooded paddy test; type: in vivo, Echinochloa crus-galli; conditions: Flood
Excerpt: as §2

barnyardgrass [11] = test: Test A preemergence; type: in vivo, Echinochloa crus-galli
Summary of the method: as §1

pigweed [12] = test: Test A preemergence; type: in vivo, Amaranthus retroflexus
Summary of the method: as §1

velvetleaf [13] = test: Test A postemergence; type: in vivo, Abutilon theophrasti
Summary of the method: as §1

crabgrass, large [14] = test: Test A preemergence; type: in vivo, Digitaria sanguinalis
Summary of the method: as §1

morningglory [15] = test: Test A preemergence; type: in vivo, Ipomoea spp.
Summary of the method: as §1

sedge, umbrella [16] = test: Test C flooded paddy test; type: in vivo, Cyperus difformis; conditions: Flood
Summary of the method: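 Ratings were visual and made relative to untreated controls after 13 to 15 greenhouse days.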

foxtail, giant [17] = test: Test A preemergence; type: in vivo, Setaria faberii
Summary of the method: as §1

corn [18] = test: Test A postemergence; type: in vivo, Zea mays
Summary of the method: as §1

wheat [19] = test: Test A postemergence; type: in vivo, Triticum aestivum
Summary of the method: as §1

crabgrass, large [20] = test: Test A postemergence; type: in vivo, Digitaria sanguinalis
Summary of the method: as §1

rice [21] = test: Test B flood; type: in vivo, Oryza sativa; conditions: 250 g ai/ha, visual rating on 0 to 100 scale (0 no effect, 100 complete control), 13 to 15 days
Summary of the method: (§3)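 Plants were grown to the 2-leaf stage and pots flooded to 3 cm above soil. Compounds were applied directly into the paddy water, with depth kept for the test. After 13–15 days in greenhouse, response was rated visually against controls on a 0 (no effect) to 100 (complete control) scale.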

sedge, umbrella [22] = test: Test B flood; type: in vivo, Cyperus difformis; conditions: 250 g ai/ha, visual rating on 0 to 100 scale (0 no effect, 100 complete control), 13 to 15 days
Summary of the method: as §3

ducksalad [23] = test: Test B flood; type: in vivo, Heteranthera limosa; conditions: 250 g ai/ha, visual rating on 0 to 100 scale (0 no effect, 100 complete control), 13 to 15 days
Summary of the method: as §3

barnyardgrass [24] = test: Test B flood; type: in vivo, Echinochloa crus-galli; conditions: 250 g ai/ha, visual rating on 0 to 100 scale (0 no effect, 100 complete control), 13 to 15 days
Summary of the method: as §3

[25] = Preemergence, 500 g ai/ha, 0 to 100 scale, 0 no effect, 100 complete control
[26] = preemergence, 125 g ai/ha, visual injury, 0 to 100 scale, approx. 10 days
[27] = Postemergence, 500 g ai/ha, visual rating after approx. 10 days, 0 to 100 scale (0 no effect, 100 complete control)
[28] = 125 g ai/ha, visual injury, 0 to 100 scale, approx. 10 days
[29] = 500 g ai/ha, visual injury after approx. 10 days, 0 to 100 scale (0 no effect, 100 complete control)
[30] = 31 g ai/ha, scale 0 to 100 (0 no effect, 100 complete control)
[31] = 62 g ai/ha, scale 0 to 100 (0 no effect, 100 complete control)
[32] = postemergence, 125 g ai/ha, about 10 days, visual rating on 0 to 100 scale (0 no effect, 100 complete control)
[33] = preemergence, 500 g ai/ha, visual injury after approx. 10 days, 0 to 100 scale (0 no effect, 100 complete control)

CCONC(=O)c1cc(C)n(Cc2cccc(OC(F)(F)F)c2)n1 [Compound 73]
Velvetleaf plant response rating (velvetleaf [1]; [25]): 60
Velvetleaf plant response rating (velvetleaf [1]; [26]): 10
Barnyardgrass plant response rating (barnyardgrass [2]; Postemergence, 125 g ai/ha, 0 to 100 scale, 0 no effect, 100 complete control): 40
Barnyardgrass plant response rating (barnyardgrass [2]; [27]): 70
Wheat plant response rating (wheat [3]; [28]): 0
Wheat plant response rating (wheat [3]; [29]): 80
Plant response rating, Ducksalad (ducksalad [4]; [30]): 0
Plant response rating, Ducksalad (ducksalad [4]; [31]): 20
Plant response rating, Ducksalad (ducksalad [4]; 125 g ai/ha, scale 0 to 100): 45
Plant response rating, Ducksalad (ducksalad [4]; 250 g ai/ha, scale 0 to 100): 55
Plant response rating, Rice (rice [5]; [30]): 0
Plant response rating, Rice (rice [5]; [31]): 0
Plant response rating, Rice (rice [5]; 125 g ai/ha, scale 0 to 100): 0
Plant response rating, Rice (rice [5]; 250 g ai/ha, scale 0 to 100): 0
Corn plant response rating (corn [6]; [25]): 50
Corn plant response rating (corn [6]; [26]): 30
Pigweed plant response rating (pigweed [7]; [27]): 90
Pigweed plant response rating (pigweed [7]; [32]): 70
Morningglory plant response rating (morningglory [8]; [27]): 40
Morningglory plant response rating (morningglory [8]; [32]): 30
Foxtail, Giant plant response rating (foxtail, giant [9]; [27]): 70
Foxtail, Giant plant response rating (foxtail, giant [9]; [32]): 40
Plant response rating, Barnyardgrass (barnyardgrass [10]; [30]): 0
Plant response rating, Barnyardgrass (barnyardgrass [10]; [31]): 0
Plant response rating, Barnyardgrass (barnyardgrass [10]; 125 g ai/ha, scale 0 to 100): 0
Plant response rating, Barnyardgrass (barnyardgrass [10]; 250 g ai/ha, scale 0 to 100): 0
Barnyardgrass plant response rating (barnyardgrass [11]; [25]): 60
Barnyardgrass plant response rating (barnyardgrass [11]; [26]): 50
Pigweed plant response rating (pigweed [12]; [25]): 100
Pigweed plant response rating (pigweed [12]; [26]): 90
Velvetleaf plant response rating (velvetleaf [13]; [27]): 80
Velvetleaf plant response rating (velvetleaf [13]; [32]): 30
Crabgrass, Large plant response rating (crabgrass, large [14]; [25]): 50
Crabgrass, Large plant response rating (crabgrass, large [14]; [26]): 30
Morningglory plant response rating (morningglory [15]; [25]): 30
Morningglory plant response rating (morningglory [15]; [26]): 10
Plant response rating, Sedge, Umbrella (sedge, umbrella [16]; [30]): 0
Plant response rating, Sedge, Umbrella (sedge, umbrella [16]; [31]): 0
Plant response rating, Sedge, Umbrella (sedge, umbrella [16]; 125 g ai/ha, scale 0 to 100): 0
Plant response rating, Sedge, Umbrella (sedge, umbrella [16]; 250 g ai/ha, scale 0 to 100): 30
Foxtail, Giant plant response rating (foxtail, giant [17]; [25]): 60
Foxtail, Giant plant response rating (foxtail, giant [17]; [26]): 30
Corn plant response rating (corn [18]; [27]): 80
Corn plant response rating (corn [18]; [32]): 40
Wheat plant response rating (wheat [19]; [27]): 40
Wheat plant response rating (wheat [19]; [32]): 0
Crabgrass, Large plant response rating (crabgrass, large [20]; [27]): 60
Crabgrass, Large plant response rating (crabgrass, large [20]; [32]): 40

CCc1cc(C(=O)NCC(F)(F)F)nn1Cc1ccnc(OCC(F)(F)F)c1 [Compound 106]
Velvetleaf plant response rating (velvetleaf [1]; [26]): 10
Velvetleaf plant response rating (velvetleaf [1]; [33]): 100
Barnyardgrass plant response rating (barnyardgrass [2]; [27]): 80
Barnyardgrass plant response rating (barnyardgrass [2]; [32]): 50
Wheat plant response rating (wheat [3]; [28]): 10
Wheat plant response rating (wheat [3]; [29]): 30
Plant response rating, Ducksalad (ducksalad [4]; [30]): 40
Plant response rating, Ducksalad (ducksalad [4]; [31]): 50
Plant response rating, Ducksalad (ducksalad [4]; 125 g ai/ha, scale 0 to 100): 70
Plant response rating, Ducksalad (ducksalad [4]; 250 g ai/ha, scale 0 to 100): 70
Plant response rating, Rice (rice [5]; [30]): 0
Plant response rating, Rice (rice [5]; [31]): 0
Plant response rating, Rice (rice [5]; 125 g ai/ha, scale 0 to 100): 0
Plant response rating, Rice (rice [5]; 250 g ai/ha, scale 0 to 100): 0
Corn plant response rating (corn [6]; [26]): 20
Corn plant response rating (corn [6]; [33]): 30
Pigweed plant response rating (pigweed [7]; [27]): 100
Pigweed plant response rating (pigweed [7]; [32]): 90
Morningglory plant response rating (morningglory [8]; [27]): 100
Morningglory plant response rating (morningglory [8]; [32]): 50
Plant response rating, Rice (rice [21]): 20
Foxtail, Giant plant response rating (foxtail, giant [9]; [27]): 80
Foxtail, Giant plant response rating (foxtail, giant [9]; [32]): 50
Plant response rating, Sedge, Umbrella (sedge, umbrella [22]): 90
Plant response rating, Barnyardgrass (barnyardgrass [10]; [30]): 0
Plant response rating, Barnyardgrass (barnyardgrass [10]; [31]): 0
Plant response rating, Barnyardgrass (barnyardgrass [10]; 125 g ai/ha, scale 0 to 100): 20
Plant response rating, Barnyardgrass (barnyardgrass [10]; 250 g ai/ha, scale 0 to 100): 30
Barnyardgrass plant response rating (barnyardgrass [11]; [26]): 50
Barnyardgrass plant response rating (barnyardgrass [11]; [33]): 100
Plant response rating, Ducksalad (ducksalad [23]): 90
Pigweed plant response rating (pigweed [12]; [26]): 100
Pigweed plant response rating (pigweed [12]; [33]): 100
Velvetleaf plant response rating (velvetleaf [13]; [27]): 70
Velvetleaf plant response rating (velvetleaf [13]; [32]): 40
Crabgrass, Large plant response rating (crabgrass, large [14]; [26]): 100
Crabgrass, Large plant response rating (crabgrass, large [14]; [33]): 100
Morningglory plant response rating (morningglory [15]; [26]): 30
Morningglory plant response rating (morningglory [15]; [33]): 100
Plant response rating, Sedge, Umbrella (sedge, umbrella [16]; [30]): 70
Plant response rating, Sedge, Umbrella (sedge, umbrella [16]; [31]): 85
Plant response rating, Sedge, Umbrella (sedge, umbrella [16]; 125 g ai/ha, scale 0 to 100): 95
Plant response rating, Sedge, Umbrella (sedge, umbrella [16]; 250 g ai/ha, scale 0 to 100): 98
Foxtail, Giant plant response rating (foxtail, giant [17]; [26]): 100
Foxtail, Giant plant response rating (foxtail, giant [17]; [33]): 100
Corn plant response rating (corn [18]; [27]): 60
Corn plant response rating (corn [18]; [32]): 30
Plant response rating, Barnyardgrass (barnyardgrass [24]): 30
Wheat plant response rating (wheat [19]; [27]): 40
Wheat plant response rating (wheat [19]; [32]): 10
Crabgrass, Large plant response rating (crabgrass, large [20]; [27]): 90
Crabgrass, Large plant response rating (crabgrass, large [20]; [32]): 50
